According to patent US20260027117A1, “METHODS OF TREATING SMALL CELL LUNG CANCER” (Debiopharm International S.A., priority 2022, published 2026):

What was measured:
[1] = system: NCI-H1048 SCLC tumor cells; experiment: NCI-H1048 cell line-derived xenograft (CDX) model, tumor growth inhibition; assay type: in vivo, Balb/c nude mice
Method: (§1) Female Balb/c nude mice were inoculated subcutaneously with 5×10^6 NCI-H1048 SCLC tumor cells. Animals were randomized when tumor volume reached approximately 100-150 mm^3. Animals were treated with vehicle (0.5% methycellulose, 1% Tween 80 P.O. and saline I.V.), Compound of formula (I) formulated as a suspension in 0.5% methycellulose and 1% Tween 80 (30 mg/kg QD, P.O.), Carboplatin (50 mg/kg QW, I.V.) or etoposide (25 mg/kg or 12.5 mg/kg QW, I.P.), administered over a 21 day cycle, either alone or in combination (8 animals per group in double combination studies; 10 animals per group in triple combination study). In combination arms, Compound of formula (I) was administered 2 hours prior to chemotherapy. Tumor growth was monitored twice weekly by caliper measurement and tumor volume calculated using the equation V=(L×W×W)/2, where V is tumor volume, L is tumor length (the longest tumor dimension) and W is tumor width (the longest tumor dimension perpendicular to L). During routine monitoring, the animals were checked for any effects of tumor growth and treatments on behavior such as mobility, food and water consumption, body weight gain/loss 3 times a week, eye/hair matting and any other abnormalities. Mortality and observed clinical signs were recorded for individual animals.

[2] = NCI-H446 CDX model, tolerability (body weight); assay type: in vivo; settings: in combination with carboplatin 50 mg/kg QW I.V.; 16 day cycle
Method: (§2) Female Balb/c nude mice were inoculated subcutaneously with 5×10^6 NCI-H446 SCLC tumor cells. Animals were randomized when tumor volume reached approximately 100-150 mm^3. Animals were treated with vehicle (0.5% methycellulose, 1% Tween 80 P.O. and saline I.V.), Compound of formula (I) formulated as a suspension in 0.5% methycellulose and 1% Tween 80 (30 mg/kg QD, 3 consecutive days a week, P.O.), or Carboplatin (50 mg/kg QW, I.V.) administered over a 16 day cycle, either alone or in combination (5 animals per group). In combination arms, Compound of formula (I) was administered 2 hours prior to chemotherapy. Tumor growth was monitored twice weekly by caliper measurement and tumor volume calculated using the equation V=(L×W×W)/2, where V is tumor volume, L is tumor length (the longest tumor dimension) and W is tumor width (the longest tumor dimension perpendicular to L). During routine monitoring, the animals were checked for any effects of tumor growth and treatments on behavior such as mobility, food and water consumption, body weight gain/loss 3 times a week, eye/hair matting and any other abnormalities. Mortality and observed clinical signs were recorded for individual animals.

[3] = SC6 PDX model, tolerability (body weight); assay type: in vivo; settings: in combination with etoposide
Method: (§3) Female athymic nude mice were inoculated subcutaneously with tumor fragments from SC6 PDX tumors. Animals were randomized when tumor volume reached approximately 60-200 mm^3. Animals were treated with vehicle (0.5% methycellulose, 1% Tween 80 P.O. and saline I.V.), Compound of formula (I) formulated as a suspension in 0.5% methycellulose and 1% Tween 80 (30 mg/kg QD, P.O.), Carboplatin (25 mg/kg QW, I.P.) or etoposide (6 mg/kg QD [3 d on/4 d off], I.P.), administered over a 21 day cycle either alone or in combination (7 animals per group). In combination arms, Compound of formula (I) was administered 2 hours prior to chemotherapy. Tumor growth was monitored twice weekly by caliper measurement and tumor volume calculated using the equation V=(L×W×W)/2, where V is tumor volume, L is tumor length (the longest tumor dimension) and W is tumor width (the longest tumor dimension perpendicular to L). During routine monitoring, the animals were checked for any effects of tumor growth and treatments on behavior such as mobility, food and water consumption, body weight gain/loss 3 times a week, eye/hair matting and any other abnormalities. Mortality and observed clinical signs were recorded for individual animals.

NCI-H446 tumor cells = experiment: In vitro synergy, CellTiter-Glo viability assay with Bliss synergy method; assay type: cell-based; settings: in combination with carboplatin, 72 hours, 9 doses, 0-10 uM and carboplatin 0-300 uM, Bliss score >5 demonstrates synergy
Method: NCI-H446 tumor cells were plated at a density of 5000 cells/90 ul in 96 well plates. Cells were treated with Compound of formula (I) and/or carboplatin, either alone or in combination with 9 different doses (3-fold serial dilutions starting at 10 uM for Compound of formula (I) and 300 uM for carboplatin) for 72 hours.

SC6 PDX tumors = experiment: SC6 patient derived xenograft (PDX) model, tumor growth inhibition; assay type: in vivo, athymic nude mice; settings: for tumor growth inhibition (TGI): 30 mg/kg QD P.O. in combination with etoposide 6 mg/kg QD [3 d on/4 d off] I.P., compared to vehicle control
Method: as §3

[4] = system: NCI-H446 SCLC tumor cells; experiment: NCI-H446 CDX model, tumor growth inhibition; assay type: in vivo, Balb/c nude mice; settings: 16 day cycle; for TGI effects compared to vehicle: monotherapy, Compound of formula (I) 30 mg/kg QD 3 consecutive days a week P.O., carboplatin 50 mg/kg QW I.V.
Method: as §2

[5] = NCI-H1048 CDX model, tolerability (body weight); assay type: in vivo
Method: as §1

SCLC organoids = experiment: SCLC organoid models, Cell Titer Glow 3D viability and Bliss synergy; assay type: cell-based; settings: for bliss synergy score: vs carboplatin/etoposide (5:1 ratio) as a single treatment
Method: SCLC organoids from 16 models were prepared as follows: SCLC organoid models were expanded in 6-well plates, each well containing 2 ml of organoid medium. On the day of organoid seeding 20 μL 100× Dispase solution was added to each well and the plates were incubated at 37° C. for 30 min. Organoids were passed through a pre-wet 100 μm filter into a 50 ml plastic tube and subsequently further filtered through a wet 20 μm filter. Organoids were resuspended in culture media and counted. Matrigel was added to a final concentration of 5% v/v and 40 μL of cell suspensions add to each well of a 384-well plate by Multidrop dispenser.
The treatments tested for each organoid model were as follows: • (a) Compound of Formula (I) in monotherapy, • (b) carboplatin and etoposide (in a 5:1 ratio, considered as a single treatment), or • (c) Compound of Formula (I) in combination with carboplatin and etoposide, using the following concentrations in a matrix format: compound of Formula (I) in 6 concentrations from 0.047 to 1.5 μM, carboplatin in 6 concentrations from 0.156 to 5 μM, and etoposide in 6 concentrations from 0.031 to 1 μM)). Thus, for the carboplatin and etoposide treatment (considered as a single treatment in this experiment), the lowest concentration of carboplatin was combined with the lowest concentration of etoposide in a 5:1 ratio, the 2nd lowest doses of both reagents were combined, etc., while maintaining the 5:1 ratio. Then, each of these combinations were used either alone (carboplatin/etoposide treatment) or in further combination with each concentration of Compound of Formula (I).
The screening plates were incubated with treatments for 5 days. All treatments were performed in technical triplicates and biological replicates.
Plates were assayed for luminescent Cell Titer Glow (CTG) signal by adding 40 μL of CTG 3D per well by Multidrop dispenser, mixing for 5 mins and incubating for 30 min at room temperature in the dark. Luminescence signal was then measured on Envision plate reader.
The surviving and inhibition rates were calculated as follows for each treatment: […]
For synergy calculations and creation of heatmaps, the Bliss independence model was used on synergyfinder.org (Zheng, S.; Wang, W.; Aldahdooh, J.; Malyutina, A.; Shadbahr, T.; Tanoli Z; Pessia, A.; Jing, T. SynergyFinder Plus: Toward Better Interpretation and Annotation of Drug Combination Screening Datasets. Genomics, Proteomics & Bioinformatics 2022, in press. doi:10.1016/j.gpb.2022.01.004) considering carboplatin/etoposide as a single treatment vs Compound of Formula (I). 9 out of 16 models had bliss synergy scores >5 between Compound of Formula (I) and the carboplatin/etoposide treatment. […]

SCLC = SCLC patients; in combination with olaparib, or with carboplatin in platinum-refractory SCLC (BALTIC study, Arm B, NCT02937818); preliminary data; cited from earlier work
[6] = triple combination with carboplatin and etoposide

With `Cc1cc(Nc2ncc3c(n2)N(C)CN(c2c(Cl)cccc2Cl)C3=O)ccc1C1CCN(C)CC1` [Compound of formula (I)] the “tumor growth inhibition (TGI)” value ([1]; 30 mg/kg QD P.O. in combination with carboplatin 50 mg/kg QW I.V., 21 day cycle, vs vehicle controls, p=0.0026) was “about 68%”, the “tumor growth inhibition (TGI)” value ([1]; 30 mg/kg QD P.O. in combination with etoposide (25 mg/kg or 12.5 mg/kg QW I.P.), 21 day cycle, vs vehicle controls, p=0.00015) was ~78% and the “tumor growth inhibition (TGI)” value ([1]; monotherapy 30 mg/kg QD P.O., 21 day cycle, vs vehicle, p=0.016) was “up to 54%”. For the same compound, the “tumor growth inhibition (TGI)” value ([1]; triple combination with carboplatin (50 mg/kg) and etoposide (12.5 mg/kg), compared to carboplatin and etoposide combination, p=0.0043) was 44%, the “tumor growth inhibition (TGI)” value ([1]; triple combination with carboplatin (50 mg/kg) and etoposide (12.5 mg/kg), compared to vehicle controls, p<0.0001) was 72% and the tumor response ([1]; triple combination with carboplatin and etoposide, compared to carboplatin and etoposide treatments alone or to the double combination) was “significantly improved tumor response”. The body weight loss [2] was “No significant body weight loss”, the tolerability [3] was “well tolerated” and the body weight loss ([3]; immediately following treatment, all animals recovered quickly) was “some transient body weight losses”. The “synergistic antitumor activity (Bliss synergy)” value (NCI-H446 tumor cells) was “strong synergistic antitumor activity”, the “tumor growth inhibition (TGI)” value (SC6 PDX tumors; day 7) was 34% and the “tumor growth inhibition (TGI)” value (SC6 PDX tumors; day 11, p=0.012) was 61%. For the same compound, the “mice remaining below the maximum tumor volume ethical criteria at end of treatment” value (SC6 PDX tumors; in combination with etoposide, end of treatment (21 days), 7 animals per group) was 4/7, the “tumor growth inhibition (TGI)” value ([4]; 30 mg/kg QD 3 consecutive days a week P.O. in combination with carboplatin 50 mg/kg QW I.V., compared to vehicle, p=0.028) was 67% and the “TGI effects compared to vehicle” value [4] was “no significant TGI effects”. For the same compound, the body weight loss ([5]; in combination with carboplatin 50 mg/kg QW I.V.) was “No significant body weight loss”, the body weight loss ([5]; in combination with etoposide QW I.P.) was “No significant body weight loss” and the body weight loss ([5]; monotherapy 30 mg/kg QD P.O., 21 day cycle) was “No significant body weight loss”. The body weight loss [5, 6] was “No significant body weight loss”, the tolerability [5, 6] was “well tolerated” and the IC50 (SCLC organoids; 120 h, monotherapy, 5 days, in 12 out of 16 SCLC organoids) was < 1.5 µM. For the same compound, the inhibition at 1.5 µM (SCLC organoids; monotherapy, at 1.5 uM (highest dose tested), in 12 out of 16 SCLC organoids, read-out: maximum inhibition rate (cell death rate)) was > 60%, the bliss synergy score (SCLC organoids; 5 days, in 5 of these models (FIG. 8), highly significant) was > 10 and the bliss synergy score (SCLC organoids; 5 days, in 9 out of 16 SCLC organoid models) was > 5.

With `N.N.O=C([O-])C1(C(=O)[O-])CCC1.[Pt+2]` [carboplatin, reference compound] the “TGI effects compared to vehicle” value [4] was “no significant TGI effects”.

For `C=CCn1c(=O)c2cnc(Nc3ccc(N4CCN(C)CC4)cc3)nc2n1-c1cccc(C(C)(C)O)n1` [adavosertib], the antitumor activity (SCLC) is given as “limited antitumor activity”.
